Results published in PubChem BioAssay (NCI).
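At the GI50, growth is halved. The concentration for full growth arrest is given as TGI.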

Legend:
Test in all cases: NCI tumour cell line growth inhibition, 384-well format
786-0 renal = tested on: 786-0 renal
SN12C renal = tested on: SN12C renal
SF-539 CNS = tested on: SF-539 CNS
U251 glioblastoma = tested on: U251 glioblastoma
SNB-19 CNS = tested on: SNB-19 CNS
TK-10 renal = tested on: TK-10 renal
OVCAR-3 ovarian = tested on: OVCAR-3 ovarian
SK-MEL-5 melanoma = tested on: SK-MEL-5 melanoma
HOP-62 NSCLC = tested on: HOP-62 NSCLC
DU-145 prostate = tested on: DU-145 prostate
NCI-H460 NSCLC = tested on: NCI-H460 NSCLC
MDA-MB-468 breast = tested on: MDA-MB-468 breast
PC-3 prostate = tested on: PC-3 prostate
RXF 393 renal = tested on: RXF 393 renal
NCI-H226 lung = tested on: NCI-H226 lung
BT-549 breast = tested on: BT-549 breast
SF-268 CNS = tested on: SF-268 CNS
MALME-3M melanoma = tested on: MALME-3M melanoma
A549 NSCLC = tested on: A549 NSCLC
COLO 205 colon = tested on: COLO 205 colon
SR leukemia = tested on: SR leukemia
CAKI-1 renal = tested on: CAKI-1 renal
OVCAR-4 ovarian = tested on: OVCAR-4 ovarian
ACHN renal = tested on: ACHN renal
KM12 colon = tested on: KM12 colon
MOLT-4 leukemia = tested on: MOLT-4 leukemia
HS 578T breast = tested on: HS 578T breast
SW-620 colon = tested on: SW-620 colon
SF-295 CNS = tested on: SF-295 CNS
HCT-116 colon = tested on: HCT-116 colon
MCF7 breast = tested on: MCF7 breast
OVCAR-8 ovarian = tested on: OVCAR-8 ovarian
T-47D breast = tested on: T-47D breast
M14 melanoma = tested on: M14 melanoma
NCI/ADR-RES ovarian = tested on: NCI/ADR-RES ovarian
UACC-62 melanoma = tested on: UACC-62 melanoma
NCI-H322M lung = tested on: NCI-H322M lung
HOP-92 NSCLC = tested on: HOP-92 NSCLC
SK-MEL-2 melanoma = tested on: SK-MEL-2 melanoma
CCRF-CEM leukemia = tested on: CCRF-CEM leukemia
UO-31 renal = tested on: UO-31 renal
HCC-2998 colon = tested on: HCC-2998 colon
K-562 leukemia = tested on: K-562 leukemia
A498 renal = tested on: A498 renal
SK-MEL-28 melanoma = tested on: SK-MEL-28 melanoma
EKVX NSCLC = tested on: EKVX NSCLC
SK-OV-3 ovarian = tested on: SK-OV-3 ovarian
SNB-75 CNS = tested on: SNB-75 CNS
NCI-H23 lung = tested on: NCI-H23 lung
HCT-15 colon = tested on: HCT-15 colon
MDA-MB-231 breast = tested on: MDA-MB-231 breast
UACC-257 melanoma = tested on: UACC-257 melanoma
RPMI-8226 leukemia = tested on: RPMI-8226 leukemia
LOX IMVI melanoma = tested on: LOX IMVI melanoma
OVCAR-5 ovarian = tested on: OVCAR-5 ovarian
IGROV1 ovarian = tested on: IGROV1 ovarian
HL-60(TB) leukemia = tested on: HL-60(TB) leukemia
NCI-H522 lung = tested on: NCI-H522 lung
MDA-MB-435 melanoma = tested on: MDA-MB-435 melanoma
HT29 colon = tested on: HT29 colon

## CCN1CCN(Cc2ccc(Nc3ncc(F)c(-c4cc(F)c5nc(C)n(C(C)C)c5c4)n3)nc2)CC1
786-0 renal
  GI50: 1.27 µM
  TGI: 7.97 µM
SN12C renal
  GI50: 6.7 µM
  TGI: > 32.9 µM
SF-539 CNS
  GI50: 1.26 µM
  TGI: 2.53 µM
U251 glioblastoma
  GI50: 2.87 µM
  TGI: > 29.6 µM
SNB-19 CNS
  GI50: 16 µM
  TGI: > 33.6 µM
TK-10 renal
  GI50: 0.803 µM
  TGI: > 27.6 µM
OVCAR-3 ovarian
  GI50: 4.21 µM
  TGI: > 29.3 µM
SK-MEL-5 melanoma
  GI50: 0.26 µM
  TGI: > 23.3 µM
HOP-62 NSCLC
  GI50: 8.44 µM
  TGI: > 56.8 µM
DU-145 prostate
  GI50: 1.84 µM
  TGI: 9.15 µM
NCI-H460 NSCLC
  GI50: 0.387 µM
  TGI: 1.82 µM
MDA-MB-468 breast
  GI50: 1.18 µM
  TGI: > 25.7 µM
PC-3 prostate
  GI50: 1.49 µM
  TGI: > 31.9 µM
RXF 393 renal
  GI50: 5.84 µM
  TGI: 11.6 µM
NCI-H226 lung
  GI50: 0.56 µM
  TGI: 23 µM
BT-549 breast
  GI50: 0.917 µM
  TGI: 16.5 µM
SF-268 CNS
  GI50: 2 µM
  TGI: 19 µM
MALME-3M melanoma
  GI50: 3.43 µM
  TGI: 13.6 µM
A549 NSCLC
  GI50: 2.12 µM
  TGI: 7.52 µM
COLO 205 colon
  GI50: 0.447 µM
  TGI: > 55.9 µM
SR leukemia
  GI50: 0.0577 µM
  TGI: 0.267 µM
CAKI-1 renal
  GI50: 0.285 µM
  TGI: 14 µM
OVCAR-4 ovarian
  TGI: > 19.6 µM
ACHN renal
  GI50: 0.39 µM
  TGI: 10.6 µM
KM12 colon
  GI50: 0.485 µM
  TGI: 6.5 µM
MOLT-4 leukemia
  GI50: 0.127 µM
  TGI: 0.981 µM
HS 578T breast
  GI50: 2.43 µM
  TGI: 19.4 µM
SW-620 colon
  GI50: 0.366 µM
  TGI: 1.81 µM
SF-295 CNS
  GI50: 6.95 µM
  TGI: > 34.2 µM
HCT-116 colon
  GI50: 0.392 µM
  TGI: 1.87 µM
MCF7 breast
  GI50: 0.395 µM
  TGI: 6.59 µM
OVCAR-8 ovarian
  GI50: 24.3 µM
  TGI: > 32.4 µM
T-47D breast
  GI50: 23.7 µM
  TGI: > 68.5 µM
M14 melanoma
  GI50: 0.684 µM
  TGI: > 28 µM
NCI/ADR-RES ovarian
  GI50: > 60.9 µM
  TGI: > 100 µM
UACC-62 melanoma
  GI50: 2.4 µM
  TGI: > 26.9 µM
NCI-H322M lung
  GI50: 1.16 µM
  TGI: 15.2 µM
HOP-92 NSCLC
  GI50: > 81.8 µM
  TGI: > 100 µM
SK-MEL-2 melanoma
  GI50: 16.8 µM
  TGI: 30.5 µM
CCRF-CEM leukemia
  GI50: 0.33 µM
  TGI: 4.39 µM
UO-31 renal
  GI50: 0.362 µM
  TGI: > 19.1 µM
HCC-2998 colon
  GI50: 4.45 µM
K-562 leukemia
  GI50: 1.11 µM
  TGI: 2.32 µM
A498 renal
  GI50: 0.312 µM
  TGI: 1.47 µM
SK-MEL-28 melanoma
  GI50: 1.85 µM
  TGI: > 33.3 µM
EKVX NSCLC
  GI50: 18 µM
  TGI: > 62 µM
SK-OV-3 ovarian
  GI50: 3.31 µM
  TGI: > 32 µM
SNB-75 CNS
  GI50: 0.708 µM
  TGI: 10.6 µM
NCI-H23 lung
  GI50: 1.74 µM
  TGI: 7.68 µM
HCT-15 colon
  GI50: 0.531 µM
  TGI: 7.24 µM
MDA-MB-231 breast
  GI50: 0.749 µM
UACC-257 melanoma
  GI50: 4.74 µM
  TGI: > 32.1 µM
RPMI-8226 leukemia
  GI50: 1.42 µM
  TGI: 8.38 µM
LOX IMVI melanoma
  GI50: 0.372 µM
  TGI: 7.23 µM
OVCAR-5 ovarian
  GI50: 0.944 µM
  TGI: > 68.3 µM
IGROV1 ovarian
  GI50: 4.43 µM
  TGI: > 28.1 µM
HL-60(TB) leukemia
  GI50: 0.386 µM
  TGI: 6.82 µM
NCI-H522 lung
  GI50: 9.54 µM
  TGI: > 33.1 µM
MDA-MB-435 melanoma
  GI50: > 15.5 µM
  TGI: > 52.4 µM

## CC(C)c1cnc(-c2cc(Cl)ccc2F)cc1Nc1ccncc1C(=O)NC(CO)CO
786-0 renal
  GI50: 9.73 µM
  TGI: 21.5 µM
SN12C renal
  GI50: 11.4 µM
  TGI: 23.6 µM
SF-539 CNS
  GI50: 1.16 µM
  TGI: 11.6 µM
U251 glioblastoma
  GI50: 13.7 µM
  TGI: 26.6 µM
SNB-19 CNS
  GI50: 13.1 µM
  TGI: 25.9 µM
TK-10 renal
  GI50: 10.3 µM
  TGI: 22.1 µM
OVCAR-3 ovarian
  GI50: 12.8 µM
  TGI: 25.5 µM
SK-MEL-5 melanoma
  GI50: 11.6 µM
  TGI: 23.8 µM
HOP-62 NSCLC
  GI50: 10.6 µM
  TGI: 22.4 µM
DU-145 prostate
  GI50: 11.5 µM
  TGI: 23.7 µM
NCI-H460 NSCLC
  GI50: 12.3 µM
  TGI: 24.8 µM
MDA-MB-468 breast
  GI50: 4.51 µM
  TGI: 15.1 µM
PC-3 prostate
  GI50: 2.22 µM
  TGI: 11.7 µM
RXF 393 renal
  GI50: 1.36 µM
  TGI: 9.34 µM
NCI-H226 lung
  GI50: 1.2 µM
  TGI: 12.2 µM
BT-549 breast
  GI50: 0.383 µM
  TGI: 3.2 µM
SF-268 CNS
  GI50: 3.8 µM
  TGI: 17.6 µM
MALME-3M melanoma
  GI50: 2.14 µM
  TGI: 11.2 µM
A549 NSCLC
  GI50: 2.22 µM
  TGI: 15 µM
COLO 205 colon
  GI50: 2.56 µM
  TGI: 14 µM
CAKI-1 renal
  GI50: 10.4 µM
  TGI: 22.1 µM
OVCAR-4 ovarian
  GI50: 0.581 µM
  TGI: 2.65 µM
ACHN renal
  GI50: 2.34 µM
  TGI: 15.3 µM
KM12 colon
  GI50: 2.76 µM
  TGI: 15.9 µM
MOLT-4 leukemia
  GI50: 5.48 µM
  TGI: 17.7 µM
HS 578T breast
  GI50: 10.5 µM
  TGI: 22.3 µM
HT29 colon
  GI50: 13.3 µM
  TGI: 26.1 µM
SW-620 colon
  GI50: 5.89 µM
  TGI: 19.5 µM
SF-295 CNS
  GI50: 5.02 µM
  TGI: 17.7 µM
HCT-116 colon
  GI50: 10.7 µM
  TGI: 22.6 µM
MCF7 breast
  GI50: 0.124 µM
  TGI: 5.16 µM
OVCAR-8 ovarian
  GI50: 1.57 µM
  TGI: 5.09 µM
T-47D breast
  GI50: 3.81 µM
  TGI: 17.2 µM
M14 melanoma
  GI50: 4.27 µM
  TGI: 19 µM
NCI/ADR-RES ovarian
  GI50: 10.8 µM
  TGI: 22.9 µM
UACC-62 melanoma
  GI50: 0.852 µM
  TGI: 18.2 µM
NCI-H322M lung
  GI50: 2.01 µM
  TGI: 15.6 µM
HOP-92 NSCLC
  GI50: 6.81 µM
  TGI: 19.8 µM
SK-MEL-2 melanoma
  GI50: 20.5 µM
  TGI: 34.8 µM
CCRF-CEM leukemia
  GI50: 5.22 µM
  TGI: 17.1 µM
UO-31 renal
  GI50: 12.7 µM
  TGI: 25.4 µM
HCC-2998 colon
  GI50: 15.9 µM
  TGI: 29.4 µM
K-562 leukemia
  GI50: 7.06 µM
  TGI: 19.5 µM
A498 renal
  GI50: 2.33 µM
  TGI: 16.1 µM
SK-MEL-28 melanoma
  GI50: 7.17 µM
  TGI: 20.5 µM
EKVX NSCLC
  GI50: 2.57 µM
  TGI: 16.8 µM
SK-OV-3 ovarian
  GI50: 0.832 µM
  TGI: 14.2 µM
SNB-75 CNS
  GI50: 12.1 µM
  TGI: 24.5 µM
NCI-H23 lung
  GI50: 0.892 µM
  TGI: 9.05 µM
HCT-15 colon
  GI50: 12.7 µM
  TGI: 25.3 µM
MDA-MB-231 breast
  GI50: 0.964 µM
  TGI: 14.5 µM
UACC-257 melanoma
  GI50: 12.5 µM
  TGI: 25.1 µM
RPMI-8226 leukemia
  GI50: 0.172 µM
  TGI: 2 µM
LOX IMVI melanoma
  GI50: 1.1 µM
  TGI: 2.82 µM
OVCAR-5 ovarian
  GI50: 14.1 µM
  TGI: 27.1 µM
IGROV1 ovarian
  GI50: 13.2 µM
  TGI: 26 µM
HL-60(TB) leukemia
  GI50: 0.263 µM
  TGI: 1.57 µM
MDA-MB-435 melanoma
  GI50: 9.98 µM
  TGI: 21.6 µM

## CCCCCOC(=O)Nc1nc(=O)n(C2OC(C)C(O)C2O)cc1F (stereo not drawn)
RPMI-8226 leukemia
  GI50: > 46.9 µM
  TGI: 99.8 µM
